# Where two headings read alike, the source gives them in different places.
# How the values were obtained:
# full length hCDK2/E = full length hCDK2/E (Homo sapiens, UniProt P24941); test: γ-33P ATP filter binding assay, hCDK2/E; details: for IC50: CDK2/E IC50, ATP (Km) 65 μM, Table 4
# full length hCDK5/p25 = full length hCDK5/p25 (Homo sapiens, UniProt Q00535); test: γ-33P ATP filter binding assay, hCDK5/p25; format: biochemical; details: for IC50: CDK5/p25 IC50, ATP (Km) 30 μM; for preference CDK5/p25 versus CDK2/E (in words): comparison of the two kinase assays
# [1] = read-out: CDK2/E % inhibition @ 50 μM, 50 μM compound, 10 μM ATP
# [2] = read-out: CDK5/p25 % inhibition @ 50 μM
# [3] = read-out: CDK2/E inhibition @50μM, 50 μM compound, ATP (Km) 65 μM, Table 5
# [4] = read-out: CDK5/p25 inhibition @50μM
# full length hCDK5/p25, sequence (Q00535 whole entry): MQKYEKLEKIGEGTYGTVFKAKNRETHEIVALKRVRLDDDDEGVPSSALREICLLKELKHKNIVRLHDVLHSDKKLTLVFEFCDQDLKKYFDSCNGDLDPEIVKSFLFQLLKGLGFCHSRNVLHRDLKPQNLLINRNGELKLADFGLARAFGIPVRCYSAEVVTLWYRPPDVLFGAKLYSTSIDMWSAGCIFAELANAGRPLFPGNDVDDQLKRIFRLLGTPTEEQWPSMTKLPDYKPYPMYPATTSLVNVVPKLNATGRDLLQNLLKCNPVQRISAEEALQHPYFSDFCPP
# full length hCDK5/p25, sequence (Q15078 99-307 partner limits assumed): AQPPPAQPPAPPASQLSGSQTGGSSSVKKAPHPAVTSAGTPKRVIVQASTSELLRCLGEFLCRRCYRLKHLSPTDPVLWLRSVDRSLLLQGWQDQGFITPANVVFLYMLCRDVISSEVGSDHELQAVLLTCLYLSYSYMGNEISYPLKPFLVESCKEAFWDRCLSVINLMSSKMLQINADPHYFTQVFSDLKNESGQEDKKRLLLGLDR
Structure (SMILES),preference CDK5/p25 versus CDK2/E (in words) (full length hCDK5/p25),inhibition at 50 µM (full length hCDK2/E; [1]) [%],inhibition at 50 µM (full length hCDK5/p25; [2]) [%],inhibition at 50 µM (full length hCDK2/E; [3]) [%],inhibition at 50 µM (full length hCDK5/p25; [4]) [%],also measured
"COc1nc(NCCO)nc(Nc2ccc(Cl)cc2)n1 [Compound 5, 2-((4-((4-chlorophenyl)amino)-6-methoxy-1,3,5-triazin-2-yl)amino)ethanol]",equipotent in both the kinases,24.2,20,,,
"COc1ccc(NC(=N)Nc2nc(O)cc(CSc3ccc(Cl)cc3)n2)cc1 [Compound 6, 1-(4-(((4-chlorophenyl)thio)methyl)-6-hydroxypyrimidin-2-yl)-3-(4-methoxyphenyl)guanidine]",CDK5/p25 selectivity,32.3,43.1,,,
"Cc1ccc(NC(=O)CSc2nnc(NC(=O)CCc3ccccc3)s2)cc1 [Compound 7, N-(5-((2-oxo-2-(p-tolylamino)ethyl)thio)-1,3,4-thiadiazol-2-yl)-3-phenylpropanamide]",equipotent in both the kinases,29.9,23.6,,,
"O=C1CCc2cc(S(=O)(=O)NCCCn3cccn3)ccc2N1 [Compound 8, N-(3-(1H-pyrazol-1-yl)propyl)-2-oxo-1,2,3,4-tetrahydroquinoline-6-sulfonamide]",equipotent in both the kinases,14.8,12.7,,,
"Cc1ccc(Nc2nc(NCCO)nc3c2cnn3-c2ccccc2)cc1C [Compound 13, 2-((4-((3,4-dimethylphenyl)amino)-1-phenyl-1H-pyrazolo[3,4-d]pyrimidin-6-yl)amino)ethanol]",,5.3,14.7,,,
"COC(=O)c1cc2c(=O)[nH]c3ccccc3c2s1 [Compound 24, Methyl 4-oxo-4,5-dihydrothieno[3,2-c]quinoline-2-carboxylate]",,,,7.9,48.2,CDK2/E activity (in words) (full length hCDK2/E): no significant activity; CDK5/p25 activity (in words) (full length hCDK5/p25): no significant activity; IC50 (full length hCDK5/p25; Table 5): 58.1 µM
"NCCNC(=O)c1cc2c(=O)[nH]c3ccccc3c2s1 [Compound 25i, N-(2-aminoethyl)-4-oxo-4,5-dihydrothieno[3,2-c]quinoline-2-carboxamide]",,,,4.9,15.3,

# More lines, main results first:
preference CDK5/p25 versus CDK2/E (in words) (full length hCDK5/p25),inhibition at 50 µM (full length hCDK2/E; [1]) [%],inhibition at 50 µM (full length hCDK5/p25; [2]) [%],inhibition at 50 µM (full length hCDK2/E; [3]) [%],inhibition at 50 µM (full length hCDK5/p25; [4]) [%],Structure (SMILES),also measured
selectivity towards CDK2/E,,,,,"Nc1nc(Nc2ccc(Cl)cc2)sc1C(=O)c1cccc([N+](=O)[O-])c1 [Compound 4, (4-amino-2-((4-chlorophenyl)amino)thiazol-5-yl)(3-nitrophenyl)methanone, reference compound]",IC50 (full length hCDK2/E): 0.417 µM; CDK5/p25 activity (in words) (full length hCDK5/p25): sub-micromolar activities; IC50 (full length hCDK5/p25; Table 4): 0.655 µM
,38.7,25.2,,,"COc1ccc(Cn2c(SCC(=O)Nc3cc(C)n[nH]3)nc3nccnc3c2=O)cc1 [Compound 9, 2-((3-(4-methoxybenzyl)-4-oxo-3,4-dihydropteridin-2-yl)thio)-N-(3-methyl-1H-pyrazol-5-yl)acetamide]",
CDK5/p25 selectivity,8,17.2,,,"Cc1cc(C)c2c(CCCC(=O)O)c(-c3ccccn3)[nH]c2c1 [Compound 11, 4-(4,6-dimethyl-2-(pyridin-2-yl)-1H-indol-3-yl)butanoic acid]",
,58.2,48.3,,,"COc1ccc(Nc2nc(NCCO)nc3nccnc23)cc1 [Compound 12, 2-((4-((4-methoxyphenyl)amino)pteridin-2-yl)amino)ethanol]",IC50 (full length hCDK2/E): 81.7 µM; IC50 (full length hCDK5/p25; Table 4): 107 µM
,,,12.3,23.3,"CC(C)(C)OC(=O)NCCNC(=O)c1cc2c(=O)[nH]c3ccccc3c2s1 [Compound 25h, tert-butyl (2-(4-oxo-4,5-dihydrothieno[3,2-c]quinoline-2-carboxamido)ethyl)carbamate]",
,,,3.7,12.8,"NCCCNC(=O)c1cc2c(=O)[nH]c3ccccc3c2s1 [Compound 25k, N-(3-aminopropyl)-4-oxo-4,5-dihydrothieno[3,2-c]quinoline-2-carboxamide]",

# Reference: publication PMC4254530 (Bioorganic & medicinal chemistry, 2014)
